Patent publication US5849259A, “3-,8-substituted deuteroporphyrin derivatives, pharmaceutical agents containing the latter and process for their production” (priority 1992, dated 1998)

Assays:
[1] = Tissue relaxation times T1 and T2 (Bruker minispec pc 120) after 0.1 mmol/kg i.v.; assay type: in vivo, nude mice (Balb/c nu/nu)
Description: e) 9 nude mice (Balb/c nu/nu) with subcutaneously implanted colon cancers (HT29 and WiDr) were each administered by i.v. 0.1 mmol/kg of the deuteroporphyrin derivative of the compound according to example 1c (10 mmol/l dissolved in bidistilled water, pH 7.2, 37° C.). After 0.5, 3 and 24 hours, the animals were killed and dissected. The tissue concentrations were determined after corresponding working-up (HNO3 conc.) by ICP-AES and calculated for % of the administered dose per gram of tissue net weight. Moreover, tissue relaxation times T1 and T2 were determined (Bruker minispec pc 120).
f) 9 nude mice (Balb/c nu/nu) with subcutaneously implanted carcinomas (HT29, WiDr and MATLu) were each administered by i.v. 0.1 mmol/kg of the deuteroporphyrin derivative of example 1c (10 mmol/L dissolved in bidistilled water, pH 7.2, 37° C.). After 2 hours, the animals were killed and dissected. The tissue concentrations were determined after corresponding working-up (HNO3 conc.) by ICP-AES and calculated for % of the administered dose per gram of tissue net weight. Moreover, tissue relaxation times T1 and T2 were determined (Bruker minispec pc 120). To determine the blank readings, control animals were correspondingly studied without KM-administration.

Novikoff-hepatoma = test: Signal intensity change in tissues of tumor-bearing (Novikoff-hepatoma, i.m.) nude rats, Bruker Biospec 2.35 Tesla, MSSE; assay type: in vivo, nude rats (LEW/Mol rnu/rnu); settings: 0.1 mmol/kg i.v.
Source text: The measurements were made with a multi slice single echo sequence (MSSE). […] […] The relative intensities relative to the respective initial intensity (=1.00 set) are indicated.

[2] = tested on: HT29 and WiDr colon cancer; test: Signal intensity change in tissues of tumor-bearing (HT29 and WiDr colon cancer) nude mice, example 1c, 0.5 mmol/kg; assay type: in vivo, nude mice (Balb/c nu/nu); settings: 0.5 mmol/kg i.v.
Description: d) On a Bruker Biospec nuclear spin tomograph (2.35 Tesla), the signal intensity change in various tissues of tumor-bearing (HT29 and WiDr colon cancer) nude mice (Balb/c nu/nu) was studied after i.v. administration of 0.5 mmol/kg of the compound of example 1c (10 mmol/l, pH 7.2; 37° C. in bidistilled water). The measurement takes place with a multi slice single echo sequence (MSSE). Imaging parameters: TR: 400 ms, TE: 30 ms, layer thickness: 4 mm, number of averages: 4/slice, matrix 256^2. After a preliminary image, 0.5 mmol/kg of the substance was administered and the signal intensity change studied up to 180 minutes p.i.

N,N'-Bis[9-carboxylato-2,5,8-tris(carboxylatomethyl)-2,5,8-triazanonyl-carbamoyl]-mesoporphyrin-IX-13,17-diamide, digadolinium complex, disodium salt [Example 1c]
tissue relaxation time T1, HT29 tumor ([1]; 0.5 hour): 410 ± 30 ms
tissue relaxation time T1, WiDr tumor ([1]; 0.5 hour): 320 ± 40 ms
tissue relaxation time T1, kidneys ([1]; 0.5 hour): 160 ± 10 ms
tissue relaxation time T1, liver ([1]; 0.5 hour): 220 ± 20 ms
tissue relaxation time T1, muscle ([1]; 0.5 hour): 500 ± 40 ms
tissue relaxation time T2, HT29 tumor ([1]; 0.5 hour): 81 ± 4 ms
tissue relaxation time T2, WiDr tumor ([1]; 0.5 hour): 67 ± 7 ms
tissue relaxation time T2, kidneys ([1]; 0.5 hour): 42 ± 1 ms
tissue relaxation time T2, liver ([1]; 0.5 hour): 34 ± 3 ms
tissue relaxation time T2, muscle ([1]; 0.5 hour): 32 ± 1 ms
effect on tissue relaxation times in prostate cancer (MATLu) versus colon cancers ([1]; 2 hours): greater than in the colon cancers
tissue relaxation time T1, HT29 tumor ([1]; 2 hours): 375 ± 32 ms
tissue relaxation time T1, MATLu ([1]; 2 hours): 361 ± 65 ms
tissue relaxation time T1, WiDr tumor ([1]; 2 hours): 358 ± 70 ms
tissue relaxation time T2, HT29 tumor ([1]; 2 hours): 94 ± 7 ms
tissue relaxation time T2, MATLu ([1]; 2 hours): 102 ± 10 ms
tissue relaxation time T2, WiDr tumor ([1]; 2 hours): 110 ± 9 ms
tissue relaxation time T1, HT29 tumor ([1]; 3 hours): 440 ± 70 ms
tissue relaxation time T1, WiDr tumor ([1]; 3 hours): 430 ± 50 ms
tissue relaxation time T1, kidneys ([1]; 3 hours): 230 ± 30 ms
tissue relaxation time T1, liver ([1]; 3 hours): 220 ± 30 ms
tissue relaxation time T1, muscle ([1]; 3 hours): 560 ± 40 ms
tissue relaxation time T2, HT29 tumor ([1]; 3 hours): 72 ± 8 ms
tissue relaxation time T2, WiDr tumor ([1]; 3 hours): 72 ± 7 ms
tissue relaxation time T2, kidneys ([1]; 3 hours): 47 ± 5 ms
tissue relaxation time T2, liver ([1]; 3 hours): 42 ± 2 ms
tissue relaxation time T2, muscle ([1]; 3 hours): 36 ± 3 ms
tissue relaxation time T1, HT29 tumor ([1]; 24 hours): 540 ± 20 ms
tissue relaxation time T1, WiDr tumor ([1]; 24 hours): 640 ± 10 ms
tissue relaxation time T1, kidneys ([1]; 24 hours): 240 ± 20 ms
tissue relaxation time T1, liver ([1]; 24 hours): 260 ± 10 ms
tissue relaxation time T1, muscle ([1]; 24 hours): 660 ± 10 ms
tissue relaxation time T2, HT29 tumor ([1]; 24 hours): 83 ± 7 ms
tissue relaxation time T2, WiDr tumor ([1]; 24 hours): 85 ± 2 ms
tissue relaxation time T2, kidneys ([1]; 24 hours): 54 ± 10 ms
tissue relaxation time T2, liver ([1]; 24 hours): 48 ± 7 ms
tissue relaxation time T2, muscle ([1]; 24 hours): 31 ± 1 ms
shortening of T1 tissue relaxation times, all three tumors ([1]; HT29, WiDr, MATLu, 2 hours): 2-3 factor
shortening of T1 tissue relaxation times, both tumors ([1]; HT29 and WiDr): 2-3 factor
tissue relaxation time T1, kidneys ([1]; HT29 mice, 2 hours): 150 ± 12 ms
tissue relaxation time T1, liver ([1]; HT29 mice, 2 hours): 174 ± 8 ms
tissue relaxation time T1, muscle ([1]; HT29 mice, 2 hours): 489 ± 57 ms
tissue relaxation time T2, kidneys ([1]; HT29 mice, 2 hours): 59 ± 3 ms
tissue relaxation time T2, liver ([1]; HT29 mice, 2 hours): 49 ± 2 ms
tissue relaxation time T2, muscle ([1]; HT29 mice, 2 hours): 56 ± 2 ms
tissue relaxation time T1, kidneys ([1]; MATLu mice, 2 hours): 171 ± 20 ms
tissue relaxation time T1, liver ([1]; MATLu mice, 2 hours): 191 ± 10 ms
tissue relaxation time T1, muscle ([1]; MATLu mice, 2 hours): 506 ± 10 ms
tissue relaxation time T2, kidneys ([1]; MATLu mice, 2 hours): 60 ± 1 ms
tissue relaxation time T2, liver ([1]; MATLu mice, 2 hours): 51 ± 2 ms
tissue relaxation time T2, muscle ([1]; MATLu mice, 2 hours): 54 ± 2 ms
tissue relaxation time T1, kidneys ([1]; WiDr mice, 2 hours): 159 ± 30 ms
tissue relaxation time T1, liver ([1]; WiDr mice, 2 hours): 180 ± 30 ms
tissue relaxation time T1, muscle ([1]; WiDr mice, 2 hours): 508 ± 40 ms
tissue relaxation time T2, kidneys ([1]; WiDr mice, 2 hours): 64 ± 2 ms
tissue relaxation time T2, liver ([1]; WiDr mice, 2 hours): 53 ± 5 ms
tissue relaxation time T2, muscle ([1]; WiDr mice, 2 hours): 62 ± 3 ms
elimination route (Novikoff-hepatoma): eliminated mainly renally
average enhancement, Kidneys (Novikoff-hepatoma; 1 min): 1.67 ± 0.35
average enhancement, Liver (Novikoff-hepatoma; 1 min): 1.43 ± 0.24
average enhancement, Muscle (Novikoff-hepatoma; 1 min): 1.60 ± 0.01
average enhancement, Tumor (Novikoff-hepatoma; 1 min): 1.63 ± 0.24
average enhancement, Kidneys (Novikoff-hepatoma; 15 min): 2.13 ± 0.28
average enhancement, Liver (Novikoff-hepatoma; 15 min): 1.34 ± 0.22
average enhancement, Muscle (Novikoff-hepatoma; 15 min): 1.54 ± 0.06
average enhancement, Tumor (Novikoff-hepatoma; 15 min): 1.71 ± 0.19
average enhancement, Kidneys (Novikoff-hepatoma; 30 min): 2.14 ± 0.38
average enhancement, Liver (Novikoff-hepatoma; 30 min): 1.31 ± 0.21
average enhancement, Muscle (Novikoff-hepatoma; 30 min): 1.47 ± 0.08
average enhancement, Tumor (Novikoff-hepatoma; 30 min): 1.72 ± 0.23
average enhancement, Kidneys (Novikoff-hepatoma; 45 min): 2.10 ± 0.30
average enhancement, Liver (Novikoff-hepatoma; 45 min): 1.17 ± 0.16
average enhancement, Muscle (Novikoff-hepatoma; 45 min): 1.41 ± 0.10
average enhancement, Tumor (Novikoff-hepatoma; 45 min): 1.79 ± 0.21
average enhancement, Kidneys (Novikoff-hepatoma; 60 min): 2.12 ± 0.19
average enhancement, Liver (Novikoff-hepatoma; 60 min): 1.31 ± 0.09
average enhancement, Muscle (Novikoff-hepatoma; 60 min): 1.33 ± 0.05
average enhancement, Tumor (Novikoff-hepatoma; 60 min): 1.78 ± 0.24
average enhancement, Kidneys (Novikoff-hepatoma; 75 min): 1.93 ± 0.19
average enhancement, Liver (Novikoff-hepatoma; 75 min): 1.37 ± 0.05
average enhancement, Muscle (Novikoff-hepatoma; 75 min): 1.37 ± 0.01
average enhancement, Tumor (Novikoff-hepatoma; 75 min): 1.64 ± 0.17
average enhancement, Kidneys (Novikoff-hepatoma; 90 min): 1.96 ± 0.08
average enhancement, Liver (Novikoff-hepatoma; 90 min): 1.22 ± 0.24
average enhancement, Muscle (Novikoff-hepatoma; 90 min): 1.24 ± 0.03
average enhancement, Tumor (Novikoff-hepatoma; 90 min): 1.75 ± 0.27
average enhancement, Kidneys (Novikoff-hepatoma; 120 min): 1.92 ± 0.33
average enhancement, Liver (Novikoff-hepatoma; 120 min): 1.23 ± 0.07
average enhancement, Muscle (Novikoff-hepatoma; 120 min): 1.28 ± 0.08
average enhancement, Tumor (Novikoff-hepatoma; 120 min): 1.77 ± 0.23
average enhancement, Kidneys (Novikoff-hepatoma; 150 min): 1.86 ± 0.18
average enhancement, Liver (Novikoff-hepatoma; 150 min): 1.16 ± 0.22
average enhancement, Muscle (Novikoff-hepatoma; 150 min): 1.20 ± 0.06
average enhancement, Tumor (Novikoff-hepatoma; 150 min): 1.73 ± 0.23
average enhancement, Kidneys (Novikoff-hepatoma; 180 min): 1.84 ± 0.24
average enhancement, Liver (Novikoff-hepatoma; 180 min): 1.07 ± 0.20
average enhancement, Muscle (Novikoff-hepatoma; 180 min): 1.15 ± 0.04
average enhancement, Tumor (Novikoff-hepatoma; 180 min): 1.85 ± 0.09
average enhancement, Kidneys (Novikoff-hepatoma; 190 min): 1.73 ± 0.00
average enhancement, Liver (Novikoff-hepatoma; 190 min): 1.27 ± 0.00
average enhancement, Muscle (Novikoff-hepatoma; 190 min): 1.21 ± 0.00
average enhancement, Tumor (Novikoff-hepatoma; 190 min): 1.45 ± 0.00
signal intensity, liver and muscles (Novikoff-hepatoma; after 2-3 hours): the initial intensity almost returned
increase in the intensity, studied tissues (Novikoff-hepatoma; directly after administration): ~60%
signal intensity, tumor (Novikoff-hepatoma; during the observation time): remained at an almost unchanged high level
signal intensity, kidneys relative to tumors (Novikoff-hepatoma; up to 150 minutes): high above that which could be determined in the tumors
signal intensity change, liver tissue and both tumors ([2]; 5 minutes p.i.): marked signal intensity increase
signal intensity change, muscle ([2]; reference tissue): smaller signal increase
